Source: patent US10273487B2, “Transfection vector for pathogenic amoebae and uses thereof” (priority 2017, dated 2019)
In brackets after ≈: the same amount, converted by molar mass. Like-named read-outs stand apart in the source and are kept apart here.

What was measured:
N. fowleri [1] = assay: MTS viability assays in N. fowleri; set-up: IC50 Value / IC90 Value: unit not given beside the values; details: for IC50 Value / IC90 Value / IC95 Value: MTS viability assay, N. fowleri, Table 1, unit not given
N. fowleri [2] = assay: Preliminary experiments on natural resistance of N. fowleri to selection marker
Description: Five different selection markers were screened for their suitability to use in an N. fowleri transfection system. […] Hygromycin was used in subsequent studies as the selectable marker, partly due to its easy use in other eukaryotic transfection systems.

neomycin
IC50 Value (N. fowleri [1]): 681.1
IC90 Value (N. fowleri [1]): 2385.3
IC95 Value (N. fowleri [1]): 3078.4
resistance of N. fowleri to the selection marker (N. fowleri [2]): natural resistance

bleomycin
IC50 Value (N. fowleri [1]): 0.49
IC90 Value (N. fowleri [1]): 1.62
IC95 Value (N. fowleri [1]): 2.10

nourseothricin
IC50 Value (N. fowleri [1]): 26.5
IC90 Value (N. fowleri [1]): 165.4
IC95 Value (N. fowleri [1]): 218.7

COc1ccc(C[C@H](N)C(=O)N[C@H]2[C@@H](O)[C@H](n3cnc4c(N(C)C)ncnc43)O[C@@H]2CO)cc1 [puromycin]
IC95 Value (N. fowleri [1]): 1.91
IC50 (N. fowleri [1]; Naegleria fowleri, read-out: IC50 Value): 0.58 µg/mL (≈ 1.23 µM)
IC50 (N. fowleri [1]; Naegleria fowleri, read-out: IC50 values): 0.6 µg/mL (≈ 1.27 µM)
IC90 (N. fowleri [1]; Naegleria fowleri, read-out: IC90 Value): 1.49 µg/mL (≈ 3.16 µM)
